Columns and labels:
Type in all cases: in vivo, pear
[1] = tested on: Conference Pears; test: Examination of Conference pears for scald; conditions: Example 9, CA 6 months
Source text: (§1) Pears (Conference, William's/Bartlett, or Packam's) were harvested at maturity for long storage. Number of fruits and replicates were selected according to the size of the chamber in which to apply 1-MCP and according to the statistical design. Airtight containers in the range of 1 cubic meter were used for the application of both 1-MCP and ethylene. 1-MCP was released from SmartFresh™ powder that contained 0.14% 1-MCP by weight (obtained from AgroFresh, Inc.). The amount of that SmartFresh™ powder was chosen to yield the target atmospheric concentration of 1-MCP in the chosen container. For example, the 1-MCP released from 1000 mg of that SmartFresh™ powder in 1 cubic meter yielded 1-MCP concentration in the atmosphere of 625 ppb.
(§2) The chosen amount of SmartFresh™ powder was dissolved in water into a tight flask and shaken until all the powder was dissolved. The flask was then put it into the airtight container and opened, to release the 1-MCP. At the same time of the opening of the 1-MCP flask, ethylene was injected with a syringe into the airtight container. Ethylene was taken from a compressed tank at known concentration: either taken directly or released into a flask. In the latter case the concentration was measured by gas-chromatograph to determine the quantity of volume to inject into the airtight container to get the target concentration.
(§3) The exposure to atmosphere containing either 1-MCP alone or 1-MCP and ethylene was done on cold pears (already cooled down to non-ambient storage temperature) within a maximum of 7 days from harvest and lasted 24 hours. At the end of the application, the airtight container was vented for 15 minutes and the fruits were put into RA or CA storage. RA storage was at temperature of −1° C. to 1° C. and at relative humidity of 80% to 98%. CA storage had the same temperature and humidity of RA storage, had oxygen level of 1% to 3%, by volume based on the volume of the atmosphere and had carbon dioxide level of 0.5% to 2%, by volume based on the volume of the atmosphere.
Pears from Italy (the same pears whose firmness is reported herein above in Example 5) were examined for scald after exposure to ambient conditions for the number of days shown below.

[2] = tested on: Pears (Conference, William's/Bartlett, or Packam's); test: Firmness of pears, summary over all Examples; conditions: each of the Examples; samples exposed to 1-MCP and not to ethylene
Source text: as §1
The chosen amount of SmartFresh™ powder was dissolved in water into a tight flask and shaken until all the powder was dissolved. The flask was then put it into the airtight container and opened, to release the 1-MCP. […] In the latter case the concentration was measured by gas-chromatograph to determine the quantity of volume to inject into the airtight container to get the target concentration. […]
Pears denoted with a single number (e.g., “300”) received 1-MCP treatment with that concentration, in ppb, of 1-MCP in the atmosphere (e.g., 300 ppb) and were not exposed to exogenous ethylene. […] Reported quantity is “firmness” (“F”), the penetrometer force in kgf.

[3] = tested on: Conference Pears; test: Inspection of Conference pears for rot, bruising and internal browning
Source text: as §1, §2, §3
After RA storage, pears were exposed to ambient for the number of days shown below and then inspected for rot, bruising, and internal browning (“I.B.”). Results shown are the percentage of pears having the disorder.
Pears from SW France were examined as in Example 7, and the percent disordered fruit was as follows: […]

[4] = tested on: Conference Pears; test: Color rating of Conference pears; conditions: Example 6, CA 6 months, ambient 5-8 days, on average
Source text: as §1, §2, §3
Pears were tested for firmness, as described above, and were rated for color on a scale of 0 (green) to 5 (yellow).

## CC1=CC1 [Sample 1-MCP, 1-MCP]
[1]
  pears with scald (in words): fewer pears with scald than the control group
[2]
  firmness (in words): undesirably high
[3]; Example 7, RA 4 months
  percentage of disorders (in words): lower percentage of disorders than the control pears
[3]; Example 8, CA 6 months, ambient 13 days
  diseased fruits (in words): fewer diseased fruits that the control sample
[3]; Examples 7, 8, and 9
  resistance to deterioration (in words): showed resistance to deterioration
[4]
  color rating (in words): undesirably too green color rating
